This note sets out measurements from patent US7585874B2, “Aryl-isoxazol-4-yl-imidazo[1,2-a]pyridine derivatives” (Hoffmann-La Roche Inc., priority 2006, dated 2009).

In the experiment the target is T1, GABA A receptor α5β3γ2 (Homo sapiens, UniProt P18507+P31644).
T1 construct: expressed in transfected cells; host or cells: HEK293 (transiently transfected; membranes)
Put plainly: [3H]flumazenil competition binding, membranes of HEK293 cells expressing human GABA A α5β3γ2. The conditions noted are these: human α5β3γ2 in HEK293 (transiently transfected); 0.5 nM [3H]flumazenil; 1 hour at 4° C.; means of two determinations; read-out: Ki[nM]hα5. As to the method:
The affinity of compounds at GABA A receptor subtypes was measured by competition for [3H]flumazenil (85 Ci/mmol; Roche) binding to HEK293 cells expressing rat (stably transfected) or human (transiently transfected) receptors of composition α1β3γ2, α2β3γ2, α3β3γ2 and α5β3γ2.
Cell pellets were suspended in Krebs-tris buffer (4.8 mM KCl, 1.2 mM CaCl2, 1.2 mM MgCl2, 120 mM NaCl, 15 mM Tris; pH 7.5; binding assay buffer), homogenized by polytron for ca. 20 sec on ice and centrifuged for 60 min at 4° C. (50000 g; Sorvall, rotor: SM24=20000 rpm). The cell pellets were resuspended in Krebs-tris buffer and homogenized by polytron for ca. 15 sec on ice. Protein was measured (Bradford method, Bio-Rad) and aliquots of 1 mL were prepared and stored at −80° C.
Radioligand binding assays were carried out in a volume of […] (96-well plates) which contained […] of cell membranes, [3H]flumazenil at a concentration of 1 nM for α1, α2, α3 subunits and 0.5 nM for α5 subunits and the test compound in the range of […]. Nonspecific binding was defined by 10^−5 M diazepam and typically represented less than 5% of the total binding. Assays were incubated to equilibrium for 1 hour at 4° C. and harvested onto GF/C uni-filters (Packard) by filtration using a Packard harvester and washing with ice-cold wash buffer 50 mM Tris; pH 7.5). After drying, filter-retained radioactivity was detected by liquid scintillation counting. Ki values were calculated using Excel-Fit (Microsoft) and are the means of two determinations.

Turning to `Cc1onc(-c2ccccc2)c1-c1cn2cc(C(=O)NCc3ccncc3)ccc2n1` [Example 42, 2-(5-Methyl-3-phenyl-isoxazol-4-yl)-imidazo[1,2-a]pyridine-6-carboxylic acid (pyridin-4-ylmethyl)-amide], the Ki (usually the dissociation constant of the complex between target and ligand, obtained from inhibition or displacement) is 85.5 nM.

Turning to `Cc1onc(-c2ccccc2)c1-c1cn2ccc(NC(=O)Cc3cccnc3)cc2n1` [Example 47, N-[2-(5-Methyl-3-phenyl-isoxazol-4-yl)-imidazo[1,2-a]pyridin-7-yl]-2-pyridin-3-yl-acetamide], the Ki is 50.7 nM.

Regarding `Cc1onc(-c2ccccc2)c1-c1cn2cc(-n3ccnc3)ccc2n1` [Example 66, 6-Imidazol-1-yl-2-(5-methyl-3-phenyl-isoxazol-4-yl)-imidazo[1,2-a]pyridine], the Ki turned out to be 57.4 nM.

As for `Brc1ccc2nc(-c3c(-c4ccccc4)noc3C3CC3)cn2c1` [Example 69, 6-Bromo-2-(5-cyclopropyl-3-phenyl-isoxazol-4-yl)-imidazo[1,2-a]pyridine], the Ki amounted to 7.13 nM.

Regarding `Cc1onc(-c2ccccc2)c1-c1cn2ccc(C(=O)NCc3ccco3)cc2n1` [Example 23, 2-(5-Methyl-3-phenyl-isoxazol-4-yl)-imidazo[1,2-a]pyridine-7-carboxylic acid (furan-2-ylmethyl)-amide], the Ki was found to be 183 nM.

For `Cc1onc(-c2ccccc2)c1-c1cn2ccc(NC(=O)C3CCC3)cc2n1` [Example 49, Cyclobutanecarboxylic acid [2-(5-methyl-3-phenyl-isoxazol-4-yl)-imidazo[1,2-a]pyridin-7-yl]-amide], the Ki stood at 80.5 nM.

Turning to `Cc1onc(-c2ccccc2)c1-c1cn2ccc(NC(=O)c3cccnc3)cc2n1` [Example 51, N-[2-(5-Methyl-3-phenyl-isoxazol-4-yl)-imidazo[1,2-a]pyridin-7-yl]-nicotinamide], the Ki is 76.2 nM.

Regarding `Cc1onc(-c2ccccc2)c1-c1cn2cc(F)ccc2n1` [Example 25, 6-Fluoro-2-(5-methyl-3-phenyl-isoxazol-4-yl)-imidazo[1,2-a]pyridine], the Ki was 154 nM.

For the molecule `CCc1ccn2cc(-c3c(-c4ccccc4)noc3C)nc2c1` [Example 9, 7-Ethyl-2-(5-methyl-3-phenyl-isoxazol-4-yl)-imidazo[1,2-a]pyridine], the Ki amounted to 101 nM.

Consider `Cc1onc(-c2ccccc2)c1-c1cn2ccc(C(=O)NC3CCOCC3)cc2n1` [Example 17, 2-(5-Methyl-3-phenyl-isoxazol-4-yl)-imidazo[1,2-a]pyridine-7-carboxylic acid (tetrahydro-pyran-4-yl)-amide], for which the Ki was 96 nM.

Take `Cc1onc(-c2ccccc2)c1-c1cn2ccc(NC(=O)C3CC3)cc2n1` [Example 48, Cyclopropanecarboxylic acid [2-(5-methyl-3-phenyl-isoxazol-4-yl)-imidazo[1,2-a]pyridin-7-yl]-amide]: the Ki worked out at 79.4 nM.

With `Cc1onc(-c2ccccc2)c1-c1cn2ccc(C(=O)NC3CC3)cc2n1` [Example 13, 2-(5-Methyl-3-phenyl-isoxazol-4-yl)-imidazo[1,2-a]pyridine-7-carboxylic acid cyclopropylamide], the Ki came out at 87.4 nM.

Turning to `Cc1onc(-c2ccccc2)c1-c1cn2cc(C#N)ccc2n1` [Example 28, 2-(5-Methyl-3-phenyl-isoxazol-4-yl)-imidazo[1,2-a]pyridine-6-carbonitrile], the Ki was determined as 173 nM.

Take `Cc1onc(-c2ccccc2)c1-c1cn2cc(-n3cccc3)ccc2n1` [Example 64, 2-(5-Methyl-3-phenyl-isoxazol-4-yl)-6-pyrrol-1-yl-imidazo[1,2-a]pyridine]: the Ki was determined as 73.2 nM.

Turning to `Cc1onc(-c2ccccc2)c1-c1cn2cc(C(=O)NCCN3CCOCC3)ccc2n1` [Example 38, 2-(5-Methyl-3-phenyl-isoxazol-4-yl)-imidazo[1,2-a]pyridine-6-carboxylic acid (2-morpholin-4-yl-ethyl)-amide], the Ki was 174 nM.

As to `Cc1onc(-c2ccccc2)c1-c1cn2cc(NC(=O)C3CC3)ccc2n1` [Example 57, Cyclopropanecarboxylic acid [2-(5-methyl-3-phenyl-isoxazol-4-yl)-imidazo[1,2-a]pyridin-6-yl]-amide], the Ki was 20.8 nM.

On to `Cc1onc(-c2ccccc2)c1-c1cn2ccc(C(=O)NCCN3CCOCC3)cc2n1` [Example 18, 2-(5-Methyl-3-phenyl-isoxazol-4-yl)-imidazo[1,2-a]pyridine-7-carboxylic acid (2-morpholin-4-yl-ethyl)-amide], for which the Ki stood at 159 nM.

With “2-(5-Methyl-3-phenyl-isoxazol-4-yl)-imidazo[1,2-a]pyridine-6-carboxylic acid (3-morpholin-4-yl-propyl)-amide [Example 39]”, the Ki stood at 190 nM.

As to `Cc1onc(-c2ccccc2)c1-c1cn2cccc(Br)c2n1` [Example 4, 8-Bromo-2-(5-methyl-3-phenyl-isoxazol-4-yl)-imidazo[1,2-a]pyridine], the Ki was determined as 146 nM.

As to `Cc1onc(-c2ccccc2)c1-c1cn2ccc(C(=O)NCc3cccnc3)cc2n1` [Example 21, 2-(5-Methyl-3-phenyl-isoxazol-4-yl)-imidazo[1,2-a]pyridine-7-carboxylic acid (pyridin-3-ylmethyl)-amide], the Ki came out at 97 nM.

`Cc1onc(-c2ccccc2)c1-c1cn2cc(I)ccc2n1` [Example 52, 6-Iodo-2-(5-methyl-3-phenyl-isoxazol-4-yl)-imidazo[1,2-a]pyridine]: the Ki came to 143 nM.

Turning to `C#CCNC(=O)c1ccn2cc(-c3c(-c4ccccc4)noc3C)nc2c1` [Example 12, 2-(5-Methyl-3-phenyl-isoxazol-4-yl)-imidazo[1,2-a]pyridine-7-carboxylic acid prop-2-ynylamide], the Ki was determined as 72.3 nM.

On to `Cc1ccc2nc(-c3c(-c4ccccc4)noc3C)cn2c1` [Example 24, 6-Methyl-2-(5-methyl-3-phenyl-isoxazol-4-yl)-imidazo[1,2-a]pyridine], for which the Ki was found to be 33.1 nM.

As for `Cc1onc(-c2ccccc2)c1-c1cn2cccc(OCc3ccccc3)c2n1` [Example 6, 8-Benzyloxy-2-(5-methyl-3-phenyl-isoxazol-4-yl)-imidazo[1,2-a]pyridine], the Ki worked out at 23 nM.

`Cc1onc(-c2ccccc2)c1-c1cn2cccc(Cl)c2n1` [Example 3, 8-Chloro-2-(5-methyl-3-phenyl-isoxazol-4-yl)-imidazo[1,2-a]pyridine]: the Ki turned out to be 126 nM.

For `Cc1onc(-c2ccccc2)c1-c1cn2cc(C(=O)NC3CCCC3)ccc2n1` [Example 35, 2-(5-Methyl-3-phenyl-isoxazol-4-yl)-imidazo[1,2-a]pyridine-6-carboxylic acid cyclopentylamide], the Ki amounted to 15.8 nM.

In the case of `Cc1onc(-c2ccccc2)c1-c1cn2ccc(C(=O)NC3CCCC3)cc2n1` [Example 15, 2-(5-Methyl-3-phenyl-isoxazol-4-yl)-imidazo[1,2-a]pyridine-7-carboxylic acid cyclopentylamide], the Ki is 200 nM.

`Cc1onc(-c2ccccc2)c1-c1cn2cc(NC(=O)c3cccnc3)ccc2n1` [Example 61, N-[2-(5-Methyl-3-phenyl-isoxazol-4-yl)-imidazo[1,2-a]pyridin-6-yl]-nicotinamide]: the Ki amounted to 9.4 nM.

Consider `COC(=O)c1ccc2nc(-c3c(-c4ccccc4)noc3C)cn2c1` [Example 29, 2-(5-Methyl-3-phenyl-isoxazol-4-yl)-imidazo[1,2-a]pyridine-6-carboxylic acid methyl ester], for which the Ki was 117 nM.

Take `Cc1onc(-c2ccccc2)c1-c1cn2ccc(C(=O)NCC3CC3)cc2n1` [Example 11, 2-(5-Methyl-3-phenyl-isoxazol-4-yl)-imidazo[1,2-a]pyridine-7-carboxylic acid cyclopropylmethyl-amide]: the Ki worked out at 178 nM.

With `CCOC(=O)c1ccc2nc(-c3c(-c4ccccc4)noc3C)cn2c1` [Example 30, 2-(5-Methyl-3-phenyl-isoxazol-4-yl)-imidazo[1,2-a]pyridine-6-carboxylic acid ethyl ester], the Ki is 154 nM.
